Reference: ChEMBL document CHEMBL3734655, “Identification of camphor derivatives as novel M2 ion channel inhibitors of influenza A virus” (Medchemcomm, 2015)
pIC50: −log10 of the molar value. Calls of active or inactive are those of the source. The calls are words filed in the database; no cut-off is given here.

Tests used:
[1] = Cytotoxicity against MDCK cells incubated for 72 hrs by CCK-8 assay; type: cell-based, Canis lupus familiaris; details: dog
Influenza A virus H3N2 [2] = assay: Antiviral activity against wild type M2 ion channel expressing Influenza A virus (A/Hong Kong/1968(H3N2)) infected in MDCK cells preincubated for 30 mins followed by viral infection measured after 72 hrs by CCK-8 assay; type: functional, organism-based; details: A/Hong Kong/1968, MDCK
Influenza A virus H3N2 [3] = assay: Antiviral activity against wild type Influenza A virus (A/Hong Kong/1968(H3N2)) infected in MDCK cells assessed as reduction in size and number of plaque at 1 uM after 2 to 3 days by crystal violet staining based assay; type: functional, organism-based
Influenza A virus H3N2 [4] = assay: Antiviral activity against wild type Influenza A virus (A/Hong Kong/1968(H3N2)) infected in MDCK cells assessed as reduction in size and number of plaque at 0.2 uM after 2 to 3 days by crystal violet staining based assay; type: functional, organism-based
Influenza A virus H3N2 [5] = assay: Potency index, ratio of amantadine IC50 to compound IC50 for wild type M2 ion channel expressing Influenza A virus (A/Hong Kong/1968(H3N2)) infected in MDCK cells; type: functional

In the case of `CC1(C)[C@@H]2CC[C@@]1(C)[C@@H](N)C2` (relative stereo), the MCC at 72 h [1] was > 300 µM and the pIC50 (Influenza A virus H3N2 [2]) was 6.31.
For `C[C@H]1[C@H](CN)C[C@@H]2C[C@H]1C2(C)C`, the MCC at 72 h [1] was > 300 µM and the pIC50 (Influenza A virus H3N2 [2]) was 5.61.
In the case of `NC1CC2CCC1C2` (configuration not stated), the MCC at 72 h [1] was > 300 µM and the pIC50 (Influenza A virus H3N2 [2]) was 4.76.
For `CC1(C)[C@@H]2CC[C@@]1(C)[C@@H](CN)C2`, the MCC at 72 h [1] was > 300 µM and the pIC50 (Influenza A virus H3N2 [2]) was 6.54.
Work on `NC12CC3CC(CC(C3)C1)C2` [AMANTADINE] yielded a pIC50 (Influenza A virus H3N2 [2]) of 6.30.
In the case of `C[C@@H](N)[C@H]1C[C@H]2CC[C@]1(C)C2(C)C.Cl`, the Activity (Influenza A virus H3N2 [3]) was “Active”, the Activity (Influenza A virus H3N2 [4]) was “Active” and the MCC at 72 h [1] was > 300 µM. For the same compound, the “Ratio IC50” value (Influenza A virus H3N2 [5]) was 5 and the pIC50 (Influenza A virus H3N2 [2]) was 7.00.
With `CC1(C)[C@H]2CC[C@](C)(C2)[C@H]1CN` the MCC at 72 h [1] was > 300 µM and the pIC50 (Influenza A virus H3N2 [2]) was 4.80.
With `C[C@H]1[C@H]([C@H](C)N)C[C@@H]2C[C@H]1C2(C)C` the MCC at 72 h [1] was > 300 µM and the pIC50 (Influenza A virus H3N2 [2]) was 5.71.
For `C[C@H]1[C@H](N)C[C@@H]2C[C@H]1C2(C)C`, the MCC at 72 h [1] was > 300 µM and the pIC50 (Influenza A virus H3N2 [2]) was 6.92.
With `N[C@H]1C[C@@H]2CC[C@H]1C2` the MCC at 72 h [1] was > 300 µM and the pIC50 (Influenza A virus H3N2 [2]) was 4.91.
